Like-named read-outs stand apart in the source and are kept apart here.
Assays:
[1] = tested on: Human Coronavirus 229E (HCoV-229E); assay: animal or person; format: in vivo
human coronavirus OC43 = format: in vivo; conditions: Table 6 (Example 17); 90 mg/kg/d gavage for 4 days
[2] = tested on: Influenza A (H1N1) virus FM1 strain; assay: Mouse pneumonia model infected with influenza A (H1N1) virus FM1 strain (lung index); format: in vivo, ICR mice; conditions: Table 13 (Example 25)
Description: ICR mice were taken and randomly divided into: normal control group, model control group, ribavirin control group, compound 4, compound F1, compound F2, and compound F3 according to their weight class, and each drug was given in two dosage groups (10 mice in each group). Except for the normal control group, mice were slightly anesthetized with ether and infected with 15 LD50 H1N1 influenza virus liquid FM1 strain by nasal drops (30 μl per animal). The administration was started on the day of infection at 0.2 ml/10 g by gavage each time once a day for 4 days, and the normal control and model control groups were gavaged with distilled water under the same conditions. The mice were weighed and dissected on Day 5, and the lung was weighed to calculate lung index and lung index inhibition. The results were statistically processed using t-test for comparison between groups.
(§1) ICR mice were taken and randomly divided by weight class: normal control group, model control group, oseltamivir control group, compound 4, compound F4, compound F5, compound 5, and compound 7 according to their weight class, and each drug was given in two dosage groups (10 mice in each group). Except for the normal control group, mice were slightly anesthetized with ether and infected with 15 LD50 H1N1 influenza virus liquid (FM1/PR8 strain) by nasal drops (30 μl per each animal). The administration was started on the day of infection at 0.2 ml/10 g by gavage each time once a day for 4 days, and the normal control and model control groups were gavaged with distilled water under the same conditions. The mice were weighed and dissected on Day 5, and lung was weighed to calculate lung index and lung index inhibition. The results were statistically processed using t-test for comparison between groups.
(§2) ICR mice were taken and randomly divided into 9 groups according to the body weight: a normal control group, model control group, oseltamivir control group, and two dosage groups of Compound 9, Compound 12 and Compound 2, 10 mice in each group. Except the normal control group, mice were slightly anesthetized with ether and infected with 15 LD50 H1N1/PR8 influenza virus liquid by nasal drops at 30 μl per mouse. The administration was started on the day of infection, at 0.2 ml/10 g each time by gavage once a day for 4 days, and the normal control and model control groups were gavaged with distilled water under the same conditions. The mice were weighed and dissected on Day 5, and lungs were weighed to calculate lung index and lung index inhibition. The results were statistically processed using t-test for comparison between groups.

[3] = tested on: Influenza A (H1N1) virus PR8 strain; assay: Mouse pneumonia model infected with influenza A (H1N1) virus PR8 strain (lung index); format: in vivo, ICR mice; conditions: Table 12 (Example 25)
Description: as §1, §2

[4] = tested on: Sendai strain of parainfluenza virus; format: in vivo; conditions: Table 11 (Example 24)
[5] = Acute toxicity test in mice (single gavage, 14-day observation); format: in vivo
Description: Seventy ICR mice, weighing 17-21 g, were randomly divided into 7 groups according to fasting body weight: a normal control group and 6 dose groups of 475, 633, 844, 1125, 1500 and 2000 mg of the test drug (compound 4)/kg, 10 mice in each group, 50/50 male and female. After fasting for about 15 h, each dosing group was administered once by gavage in a volume of 40 ml/kg, and the control group was gavaged with an equal volume of 0.5% sodium carboxymethylcellulose solution once/day, and the animals were observed continuously for 14 days after administration of the drug to observe the death of the animals.
Thirty ICR mice, weighing 17-21 g, were randomly divided into three groups according to their fasting body weight: a normal control group and 2000 mg and 4000 mg of test drug (Compound 12)/kg dose group, 10 mice in each group, 50/50 male and female. After fasting for about 15 h, each dosing group was given the drug once by gavage in a volume of 40 ml/kg, and the control group was given an equal volume of 0.5% sodium carboxymethylcellulose solution by gavage once/day, and the deaths of the animals were observed continuously for 14 days after the administration of the drug.

Row | Structure (SMILES) | inhibition rate % ([2]; 7.5 mg/kg/d gavage for 4 days) [%] | lung index ([2]; 7.5 mg/kg/d gavage for 4 days) | inhibition rate % ([2]; 15 mg/kg/d gavage for 4 days) [%] | lung index ([2]; 15 mg/kg/d gavage for 4 days) | inhibition rate % ([3]; 7.5 mg/kg/d gavage for 4 days) [%] | lung index ([3]; 7.5 mg/kg/d gavage for 4 days) | inhibition rate % ([3]; 15 mg/kg/d gavage for 4 days) [%] | lung index ([3]; 15 mg/kg/d gavage for 4 days) | inhibition rate % ([4]; 7.5 mg/kg/d gavage for 4 days) [%] | lung index ([4]; 7.5 mg/kg/d gavage for 4 days) | inhibition rate % ([4]; 15 mg/kg/d gavage for 4 days) [%] | lung index ([4]; 15 mg/kg/d gavage for 4 days) | further results
1 | CCN(CC)CCCC(C)Nc1ccnc2cc(Cl)ccc12 (stereo not drawn) [Chloroquine, chloroquine phosphate, reference compound] | – | – | – | – | – | – | – | – | – | – | – | – | inhibition in vivo at 90 mg/kg/day ([1]; Human coronavirus 229E, in Mus musculus, po, 96 h, read-out: inhibition rate (%), Table 4 (Example 15), 90 mg/kg/d gavage for 4 days): 31.3%; inhibition in vivo at 90 mg/kg/day ([1]; Human coronavirus 229E, in Mus musculus, po, 96 h, read-out: inhibition rate (%), Table 5 (Example 16), 90 mg/kg/d gavage for 4 days): 56.2%; inhibition in vivo at 90 mg/kg/day ([1]; Human coronavirus 229E, in Mus musculus, po, 96 h, read-out: inhibition rate (%), Table 10 (Example 23), 90 mg/kg/d gavage for 4 days): 52.9%; inhibition in vivo at 90 mg/kg/day ([1]; Human coronavirus 229E, in Mus musculus, po, 96 h, read-out: inhibition rate (%), Table 14 (Example 26), 90 mg/kg/d gavage for 4 days): 62.8%; lung index ([1]; Table 4 (Example 15), 90 mg/kg/d gavage for 4 days): 0.78 ± 0.04 g lung weight × 100/g body weight; lung index ([1]; Table 5 (Example 16), 90 mg/kg/d gavage for 4 days): 0.70 ± 0.04 g lung weight × 100/g body weight; lung index ([1]; Table 10 (Example 23), 90 mg/kg/d gavage for 4 days): 0.80 ± 0.02 g lung weight × 100/g body weight; lung index ([1]; Table 14 (Example 26), 90 mg/kg/d gavage for 4 days): 0.83 ± 0.05 g lung weight × 100/g body weight; inhibition rate % (human coronavirus OC43): 42.72%; lung index (human coronavirus OC43): 0.80 ± 0.05 g lung weight × 100/g body weight
2 | CC(C)N(CCOc1ccc2c(=O)c(-c3ccccc3)coc2c1)C1CC1 [Compound 12] | 70.82 | 0.73 ± 0.070 Lung weight * 100/body weight | 93.59 | 0.71 ± 0.042 Lung weight * 100/body weight | 63.78 | 0.74 ± 0.091 Lung weight * 100/body weight | 76.54 | 0.72 ± 0.076 Lung weight * 100/body weight | 57.49 | 0.77 ± 0.04 Lung weight * 100/body weight | 61.91 | 0.76 ± 0.03 Lung weight * 100/body weight | inhibition in vivo at 7.5 mg/kg/day ([1]; Human coronavirus 229E, in Mus musculus, po, 96 h, Table 14 (Example 26), 7.5 mg/kg/d gavage for 4 days, read-out: inhibition rate (%)): 39.8%; inhibition in vivo at 15 mg/kg/day ([1]; Human coronavirus 229E, in Mus musculus, po, 96 h, Table 14 (Example 26), 15 mg/kg/d gavage for 4 days, read-out: inhibition rate (%)): 68.4%; lung index ([1]; Table 14 (Example 26), 7.5 mg/kg/d gavage for 4 days): 0.86 ± 0.04 g lung weight × 100/g body weight; lung index ([1]; Table 14 (Example 26), 15 mg/kg/d gavage for 4 days): 0.82 ± 0.07 g lung weight × 100/g body weight; animal deaths ([5]; 2000 and 4000 mg of the drug/kg single gavage, 14 days observation): No animals died; maximum concentration that could be administered by gavage, with no death of the animals ([5]; acute toxicity, mice): 4000 mg/kg
3 | CN(CCOc1ccc2c(=O)c(-c3ccccc3)coc2c1)C1CC1 [Compound 9] | 79.57 | 0.72 ± 0.069 Lung weight * 100/body weight | 84.63 | 0.71 ± 0.052 Lung weight * 100/body weight | 58.71 | 0.74 ± 0.046 Lung weight * 100/body weight | 91.64 | 0.71 ± 0.060 Lung weight * 100/body weight | 40.51 | 0.79 ± 0.05 Lung weight * 100/body weight | 55.59 | 0.77 ± 0.05 Lung weight * 100/body weight | inhibition in vivo at 7.5 mg/kg/day ([1]; Human coronavirus 229E, in Mus musculus, po, 96 h, Table 10 (Example 23), 7.5 mg/kg/d gavage for 4 days, read-out: inhibition rate (%)): 46.5%; lung index ([1]; Table 10 (Example 23), 7.5 mg/kg/d gavage for 4 days): 0.81 ± 0.10 g lung weight × 100/g body weight

Source: patent US20250154121A1, “CYCLIC(ALKYL)(AMINO)ALKOXY-SUBSTITUTED ARYL-PYRONE COMPOUND AND USE THEREOF” (priority 2022, published 2025)
